Data set [1] has as its system Plasmodium yoelii nigeriensis. Nature of the data set: Antimalarial activity as survival time against multidrug-resistant Plasmodium yoelii nigeriensis in Swiss mice (Mus musculus) at 96 mg/kg peroral dose for 4 days. The conditions noted are these: route oral. Format: functional.
The test system of data set [2] is Plasmodium yoelii nigeriensis. Nature of the data set: Antimalarial activity as cures against multidrug-resistant Plasmodium yoelii nigeriensis in Swiss mice (Mus musculus) at 96 mg/kg peroral dose for 4 days. Format: functional, organism-based. More on the design: dose 96 mg/kg.
In data set [3] the test system is Plasmodium yoelii nigeriensis. Nature of the data set: Antimalarial activity as reduced parasitaemia against multidrug-resistant Plasmodium yoelii nigeriensis in Swiss mice (Mus musculus) at 96 mg/kg peroral dose for 4 days. Format: functional. Set-up: scale not given: the % may be the effect or the level left. The note with it: route oral.
Data set [4] relates to Plasmodium yoelii nigeriensis. Nature of the data set: Antimalarial activity as reduced parasitaemia against multidrug-resistant Plasmodium yoelii nigeriensis in Swiss mice (Mus musculus) at 48 mg/kg peroral dose for 4 days. Format: functional. Set-up: scale not given: the % may be the effect or the level left. The conditions noted are these: route oral.
For data set [5], the system named is Plasmodium yoelii nigeriensis. The data set can be described thus: Antimalarial activity as survival time against multidrug-resistant Plasmodium yoelii nigeriensis in Swiss mice (Mus musculus) at 48 mg/kg peroral dose for 4 days. The data set is classed as functional. The conditions noted are these: route oral.
Data set [6] has as its system Plasmodium yoelii nigeriensis. The data set can be described thus: Antimalarial activity as cures against multidrug-resistant Plasmodium yoelii nigeriensis infected Swiss mice (Mus musculus) at 48 mg/kg peroral dose over 4 days. The data set is classed as functional, organism-based. More on the design: dose 48 mg/kg.
In data set [7] the test system is Plasmodium yoelii nigeriensis. Nature of the data set: Antimalarial activity as survival time against multidrug-resistant Plasmodium yoelii nigeriensis in Swiss mice (Mus musculus) at 24 mg/kg peroral dose for 4 days. The conditions noted are these: route oral. Format: functional.
Data set [8] relates to Plasmodium yoelii nigeriensis. Nature of the data set: Antimalarial activity as reduced parasitaemia against multidrug-resistant Plasmodium yoelii nigeriensis in Swiss mice (Mus musculus) at 24 mg/kg peroral dose for 4 days. The data set is classed as functional. Set-up: scale not given: the % may be the effect or the level left. The conditions noted are these: route oral.

Data set [9] can be described thus: Solubility in groundnut oil. Format: physicochemical.

The structures appear in SMILES notation. The source made the active and inactive calls. The calls are words filed in the database; no cut-off is given here. A value given as a limit tells only on which side of the number the result lay.

`C=C(c1ccc(Oc2cc(Oc3ccc(C(=C)C4COC5(OO4)C4CC6CC(C4)CC5C6)cc3)cc(Oc3ccc(C(=C)C4COC5(OO4)C4CC6CC(C4)CC5C6)cc3)c2)cc1)C1COC2(OO1)C1CC3CC(C1)CC2C3` (centres undefined) returned a Survival in [1] of 7.4 days. Also, the outcome in [2] was inactive. The compound also registered an Activity in [3] of 5.47%.

As to `C=C(c1ccc(OCCCOc2ccc(C(=C)C3COC4(CCCCC4)OO3)cc2)cc1)C1COC2(CCCCC2)OO1` (centres undefined), the Survival in data set [1] is more than 28 days; in [5], 10.8 days. The Activity in [4] is reported as 87.47%; in data set [3], 100%. In addition, in [2], the outcome was Active. Besides, the outcome in [6] was inactive.

For `C=C(c1ccc(OCCOc2ccc(C(=C)C3COC4(OO3)C3CC5CC(C3)CC4C5)cc2)cc1)C1COC2(OO1)C1CC3CC(C1)CC2C3` (centres undefined), in [1], the Survival came out at 7.6 days. In addition, the outcome in data set [2] was inactive. In [3], this compound registered an Activity of 66.39%.

Regarding `C=C(c1ccc(OCC(O)COc2ccc(C(=C)C3COC4(CCCC4)OO3)cc2)cc1)C1COC2(CCCC2)OO1` (centres undefined), the Survival in data set [1] was more than 28 days; in data set [5] it was 9.6 days. The results for the Activity in data set [4] and in data set [3] were 74.32% and 100%, respectively. Further, the outcome in data set [2] was Active. The outcome in data set [6] was inactive.

In the case of `C=C(c1ccc(Oc2ccc3ccc(Oc4ccc(C(=C)C5COC6(OO5)C5CC7CC(C5)CC6C7)cc4)cc3c2)cc1)C1COC2(OO1)C1CC3CC(C1)CC2C3` (centres undefined), the Survival in [1] was determined as 7.4 days. For the same compound, the result in [2] was inactive. The compound further displayed an Activity in data set [3] of 36.07%.

As to `C=C(c1ccc(Oc2cccc(C(=C)C3COC4(OO3)C3CC5CC(C3)CC4C5)c2)cc1)C1COC2(OO1)C1CC3CC(C1)CC2C3` (centres undefined), the Survival in data set [1] is 7.6 days. In addition, in [2], the result was inactive. This compound also yielded an Activity in data set [3] of 7.16%.

`C=C(c1ccc(Oc2cccc3c(Oc4ccc(C(=C)C5COC6(OO5)C5CC7CC(C5)CC6C7)cc4)cccc23)cc1)C1COC2(OO1)C1CC3CC(C1)CC2C3` (centres undefined): in data set [1], the Survival was found to be 7.4 days. For the same compound, in data set [2], the outcome was inactive. This compound registered an Activity in data set [3] of 12.27%.

Compound `C=C(c1ccc(Oc2ccc(Oc3ccc(C(=C)C4COC5(CCCCC5)OO4)cc3)cc2)cc1)C1COC2(CCCCC2)OO1` (centres undefined) showed a Survival in [1] of 8.6 days. The result in data set [2] was inactive. In [3], this compound showed an Activity of 47.33%.

For the compound `C=C(c1ccc(Oc2cc(Oc3ccc(C(=C)C4COC5(CCCCC5)OO4)cc3)cc(Oc3ccc(C(=C)C4COC5(CCCCC5)OO4)cc3)c2)cc1)C1COC2(CCCCC2)OO1` (centres undefined), the Survival in [1] turned out to be 8.4 days. Besides, the outcome in [2] was inactive. Besides, the Activity in data set [3] is 26.37%.

In the case of `C=C(c1ccc(OCCCOc2ccc(C(=C)C3COC4(OO3)C3CC5CC(C3)CC4C5)cc2)cc1)C1COC2(OO1)C1CC3CC(C1)CC2C3` (centres undefined), the Survival in data set [1] came out at 7.4 days. In data set [2], the result was inactive. In [3], the Activity was 32.54%.

In data set [1], `C=C(c1ccc(OCCOc2ccc(C(=C)C3COC4(CCCCC4)OO3)cc2)cc1)C1COC2(CCCCC2)OO1` (centres undefined) showed a Survival of 10.6 days. In addition, the outcome in [2] was inactive. This compound gave an Activity in [3] of 86.29%.

For the compound `C=C(c1ccc(OCC(O)COc2ccc(C(=C)C3COC4(CCCCC4)OO3)cc2)cc1)C1COC2(CCCCC2)OO1` (centres undefined), the Survival in data set [1] was more than 28 days; in data set [5], 8 days. Also, the results for the Activity in data set [4] and in data set [3] were 75.86% and 100%, respectively. In addition, in [2], the outcome was Active. For the same compound, the outcome in data set [6] was inactive.

As for `C=C(c1ccc(Oc2cccc(C(=C)C3COC4(CCCC4)OO3)c2)cc1)C1COC2(CCCC2)OO1` (centres undefined), the Survival is more than 28 days in [1] and 12.2 days in [5]. In addition, the Activity in [4] and in data set [3] was 100% in each case. In addition, the result in data set [2] was Active. Besides, in [6], the outcome was inactive.

As for `C=C(c1ccc(OCCOc2ccc(C(=C)C3COC4(CCCC4)OO3)cc2)cc1)C1COC2(CCCC2)OO1` (centres undefined), the values for the Survival in [1] and in data set [5] were more than 28 days and 12.2 days, respectively. Besides, the Activity in data set [4] amounted to 87.76%; in data set [3], 100%. In addition, the outcome in [2] was Active. The result in data set [6] was inactive.

`C=C(c1ccc(OCC(O)COc2ccc(C(=C)C3COC4(OO3)C3CC5CC(C3)CC4C5)cc2)cc1)C1COC2(OO1)C1CC3CC(C1)CC2C3` (centres undefined) yielded a Survival in [1] of 8.6 days. Besides, the result in data set [2] was inactive. The compound further returned an Activity in [3] of 26.76%.

In the case of `C=C(c1ccc(Oc2ccc(C(=C)C3COC4(CCCC4)OO3)cc2)cc1)C1COC2(CCCC2)OO1` (centres undefined), the Survival in data set [1] was more than 28 days; in data set [7], more than 21.2 days; in data set [5] it was more than 28 days. Also, the Activity in data set [4], in data set [8] and in data set [3] was 100% each time. The outcome in data set [2] and in data set [6] was Active.

Consider `C=C(c1ccc(Oc2ccc3ccc(Oc4ccc(C(=C)C5COC6(CCCCC6)OO5)cc4)cc3c2)cc1)C1COC2(CCCCC2)OO1` (centres undefined), for which, in data set [9], the solubility result is on record as “Insoluble”.

With `C=C(c1ccc(Oc2ccc(C(=C)C3COC4(CCCCC4)OO3)cc2)cc1)C1COC2(CCCCC2)OO1` (centres undefined), the Survival was more than 28 days in data set [1] and 11.8 days in data set [5]. The Activity in [4] and in data set [3] was 100% in each case. For the same compound, the outcome in data set [2] was Active. Further, in [6], the outcome was inactive.

In data set [1], `C=C(c1ccc(Oc2ccc(Oc3ccc(C(=C)C4COC5(OO4)C4CC6CC(C4)CC5C6)cc3)cc2)cc1)C1COC2(OO1)C1CC3CC(C1)CC2C3` (centres undefined) came in with a Survival of 9 days. In addition, the outcome in [2] was inactive. Further, in [3], the Activity turned out to be 38.46%.

In [1], `CCO[C@@H]1C[C@@H]2CC[C@@H](C)[C@@H]3CC[C@]4(C)OO[C@@]23[C@H](O1)O4` showed a Survival of more than 28 days. The Activity in data set [4] and in data set [8] was 100% in each case. The outcome in data set [6] was Active.

In the case of `C=C(c1ccc(OCCCOc2ccc(C(=C)C3COC4(CCCC4)OO3)cc2)cc1)C1COC2(CCCC2)OO1` (centres undefined), the Survival in data set [1] was more than 28 days; in data set [5], 12.8 days. Moreover, the Activity in [4] and in data set [3] was 100% in each case. For the same compound, in data set [2], the outcome was Active. The result in data set [6] was inactive.

For `C=C(c1ccc(Oc2ccc3ccc(Oc4ccc(C(=C)C5COC6(CCCC6)OO5)cc4)cc3c2)cc1)C1COC2(CCCC2)OO1` (centres undefined), the Survival in [1] amounted to 7.8 days. Moreover, the outcome in [2] was inactive. The Activity in data set [3] came to 42.29%.

`C=C(c1ccc(Oc2ccc(Oc3ccc(C(=C)C4COC5(CCCC5)OO4)cc3)cc2)cc1)C1COC2(CCCC2)OO1` (centres undefined) showed a Survival in data set [1] of 7.6 days. The outcome in [2] was inactive. In data set [3], this compound yielded an Activity of 50.83%.

As for `C=C(c1ccc(Oc2cc(Oc3ccc(C(=C)C4COC5(CCCC5)OO4)cc3)cc(Oc3ccc(C(=C)C4COC5(CCCC5)OO4)cc3)c2)cc1)C1COC2(CCCC2)OO1` (centres undefined), the Survival in data set [1] was determined as 7.2 days. Besides, the result in data set [2] was inactive. In [3], the Activity was 3.22%.

As for `C=C(c1ccc(Oc2ccc(C(=C)C3COC4(OO3)C3CC5CC(C3)CC4C5)cc2)cc1)C1COC2(OO1)C1CC3CC(C1)CC2C3` (centres undefined), the Survival in [1] stood at 7.2 days. Moreover, the result in data set [2] was inactive. Besides, in data set [3], the Activity is on record as 36.74%.

For the compound `C=C(c1ccc(Oc2cccc(C(=C)C3COC4(CCCCC4)OO3)c2)cc1)C1COC2(CCCCC2)OO1` (centres undefined), the Survival in data set [1] came out at 10 days. The result in data set [2] was inactive. The Activity in data set [3] came out at 76.79%.

Consider `C=C(c1ccc(Oc2cccc3c(Oc4ccc(C(=C)C5COC6(CCCC6)OO5)cc4)cccc23)cc1)C1COC2(CCCC2)OO1` (centres undefined), for which, in [1], the Survival worked out at 8.4 days. For the same compound, in [2], the outcome was inactive. In data set [3], this compound showed an Activity of 40.05%.

Consider `C=C(c1ccc(Oc2cccc3c(Oc4ccc(C(=C)C5COC6(CCCCC6)OO5)cc4)cccc23)cc1)C1COC2(CCCCC2)OO1` (centres undefined), for which the Survival in [1] came out at 8.2 days. The outcome in data set [2] was inactive. The compound further showed an Activity in data set [3] of 16.36%.

The record behind these values is ChEMBL document CHEMBL1140218, “Novel bis- and tris-1,2,4-trioxanes: synthesis and antimalarial activity against multidrug-resistant Plasmodium yoelii in Swiss mice” (J Med Chem, 2008).
